Results published in patent US7357944B2, “Liposomal analgesic drug compositions prepared in GMV using an ammonium sulfate gradient” (New York University, priority 1998, dated 2008).
Read-outs that look alike come from different tables or passages of the source.

Experiments:
[1] = BUP partition between octanol and aqueous ammonium sulfate at various pH; assay type: physicochemical; details: for logD: octanol/aqueous ammonium sulfate, read-out: BUP octanol/(NH4)2(SO4) partition coefficient (converted)
[2] = pH-dependent aqueous solubility of BUP in 250 mM ammonium sulfate; assay type: physicochemical; details: more concentrated solutions, pH higher than about 6
Experimental: In the present case, the liposomes were incubated with a 50 mg/ml solution of BUP HCl for 45 minutes at 60° C. During this process, the extraliposomal pH should be maintained at a pH less than about 6, e.g. about 5.5, to ensure BUP solubility and prevent precipitation. […] The data was produced by adding various levels of BUP, as indicated, to 250 mM ammonium sulfate at differing pH's. The samples were vortexed and centrifuged, and the amount of dissolved BUP in the supernatant was determined. […] Again, aqueous solubility substantially decreases between pH 6 and 8.

male Swiss-Webster mice = experiment: Analgesia (sensory block) after subcutaneous injection, response to cutaneous electrical stimulation; assay type: in vivo; details: 0.15 ml at 0.5%
Experimental: Analgesia was assessed in male Swiss-Webster mice, as described in Example 2, using response to cutaneous electrical stimulation. Prior to administering analgesic, the control vocalization threshold (current required to produce a vocalization response) was determined.
For testing, 150 μl of test solution was injected subcutaneously over the abdomen, and sensory block was assessed at regular intervals, i.e., 15 min for 0.5% BUP formulations and 30 min for 1% and 2% formulations. Failure to vocalize in response to the threshold current was taken as evidence of analgesia. Testing was terminated when two successive stimuli provoked a vocalization. Duration of analgesia was taken as the time from injection to the last stimulus at which no vocalization occurred.
(§1) Analgesia regressed within two hours (see FIG. 13).
The Institutional Animal Care and Use Committee approved all experiments. Male Swiss-Webster mice weighing 28±3 g were used. Animals had free access to food and water, and were maintained on a 12 hour dark-light cycle. Prior to testing, the hair overlying the abdomen was shaved. Analgesia was assessed using response to cutaneous electrical stimulation. […] The vocalization threshold was assessed prior to testing, and testing was carried out as described above.

mice [3] = details: mouse, in vivo
Experimental: as §1
To determine the effect on overall body temperature of this treatment, the rectal temperature was measured in all animals cooled over the site of injection (ipsalateral) or over the contralateral abdomen, using both GMV-encapsulated bupivacaine and nonencapsulated (plain) bupivacaine. […] For FIG. 14A, cooling was initiated at zero hours (with administration) and discontinued at nine hours; for FIG. 14B, cooling was initiated at zero hours and discontinued at one hour. There were no significant differences observed as a function of the site of cooling. […] Animals in the GMV group (FIG. 14A) returned to baseline body temperature within about 10 minutes after cessation of cooling.

mice [4] = details: mouse, in vivo, sc
Experimental: (§2) In a control group, mice were injected with 0.15 ml nonliposomal bupivacaine at a concentration of 0.5%, the highest normally tolerated. Cooling was applied either over the injection site or over the abdomen contralateral to the injection site.

mice [5] = experiment: Tolerability of BUP concentration injected subcutaneously; details: 0.15 ml injected
Experimental: as §2

## CCCCN1CCCCC1C(=O)Nc1c(C)cccc1C (stereo not drawn) [BUP, bupivacaine]
[1]; pH 2
  logD: 0.0253
  BUP, mg/ml in (NH4)2(SO4): 2.30 mg/mL
  BUP, mg/ml in octanol: 2.45 mg/mL
[1]; pH 4
  logD: -0.42
  BUP, mg/ml in (NH4)2(SO4): 3.32 mg/mL
  BUP, mg/ml in octanol: 1.25 mg/mL
[1]; pH 6
  logD: -0.456
  BUP, mg/ml in (NH4)2(SO4): 3.62 mg/mL
  BUP, mg/ml in octanol: 1.28 mg/mL
[1]; pH 8
  logD: 1.18
  BUP, mg/ml in (NH4)2(SO4): 0.32 mg/mL
  BUP, mg/ml in octanol: 4.90 mg/mL
[2]
  aqueous solubility of BUP (FIG. 2): large amounts of BUP precipitated
Male Swiss-Webster mice; s.c., mice, with or without cooling (FIG. 13)
  time in which analgesia regressed: two
Male Swiss-Webster mice; cooling at injection site or contralateral vs no cooling
  effect of skin cooling (about 22° C.) on analgesia: no difference
Mice [3]
  delayed return to normal body temperature after cessation of cooling: 25 to 35 min
Mice [4]
  toxicity: proved toxic
Mice [5]
  highest concentration normally tolerated: 0.5%
